Data on 1 compound can be found in patent US20170224679A1, “Use of CXCR2 Antagonists For The Prevention and/or Treatment of Chemotherapy Induced Peripheral Neuropathy (CIPN)” (GlaxoSmithKline Intellectual Property Development Limited, priority 2014, published 2017).

Format in all cases: cell-based
The target in assay [1] is T1, CXCR2 receptor (Homo sapiens, UniProt P25025).
T1 sequence (P25025 1-360): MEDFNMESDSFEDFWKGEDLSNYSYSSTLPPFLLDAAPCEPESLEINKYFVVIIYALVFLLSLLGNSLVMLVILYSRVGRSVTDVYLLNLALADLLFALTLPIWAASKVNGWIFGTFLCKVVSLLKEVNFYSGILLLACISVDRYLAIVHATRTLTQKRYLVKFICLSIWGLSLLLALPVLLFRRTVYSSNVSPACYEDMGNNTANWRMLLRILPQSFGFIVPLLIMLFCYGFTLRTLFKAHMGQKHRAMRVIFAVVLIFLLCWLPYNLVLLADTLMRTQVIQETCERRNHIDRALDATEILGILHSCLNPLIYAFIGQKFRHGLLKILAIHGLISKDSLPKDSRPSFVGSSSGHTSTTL
As to the kind of experiment: GPCR Arrestin Assay (DiscoveRX PathHunter), CXCR2. More on the design: host or cells: PathHunter CHO cell lines. The protocol: (§1) Certain compounds of the invention were also tested by DiscoveRX Corporation (42501 Albrae Street, Fremont, Calif. 94538, United States) in their GPCR Arrestin Assay to determine their activity against a panel of receptors including CXCR2 and CXCR1. PathHunter CHO cell lines were expanded from freezer stocks according to standard procedures. Cells were seeded in a total volume of 20 μL into white walled, 384-well microplates and incubated at 37° C. for the appropriate time prior to testing. The cells were pre-incubated with antagonist followed by agonist challenge at the EC80 concentration. Intermediate dilution of sample stocks was performed to generate 5× sample in assay buffer. 5 μL of 5× sample was added to cells and incubated at 37° C. or room temperature for 30 minutes. […] Assay signal was generated through a single addition of 12.5 or 15 μL (50% v/v) of PathHunter Detection reagent cocktail, followed by one hour incubation at room temperature. Microplates were read following signal generation with a PerkinElmer Envision™ instrument for chemiluminescent signal detection. Compound activity was analyzed using CBIS data analysis suite (ChemInnovation, Calif.).

Assay [2] addresses T2, CXCR1 receptor (Homo sapiens, UniProt P25024).
T2 sequence (P25024 1-350): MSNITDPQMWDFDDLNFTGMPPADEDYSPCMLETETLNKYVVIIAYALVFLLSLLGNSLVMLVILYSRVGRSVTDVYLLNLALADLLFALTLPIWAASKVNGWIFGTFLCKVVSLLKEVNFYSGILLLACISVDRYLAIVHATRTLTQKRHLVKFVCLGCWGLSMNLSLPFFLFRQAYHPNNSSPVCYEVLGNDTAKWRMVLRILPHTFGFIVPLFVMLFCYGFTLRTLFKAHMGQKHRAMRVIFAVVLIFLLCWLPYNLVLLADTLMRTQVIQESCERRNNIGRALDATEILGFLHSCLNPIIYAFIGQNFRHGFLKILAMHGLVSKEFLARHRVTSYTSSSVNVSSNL
As to the kind of experiment: GPCR Arrestin Assay (DiscoveRX PathHunter), CXCR1. More on the design: host or cells: PathHunter CHO cell lines. The following applies: PathHunter CHO cells, agonist at EC80; read-out: pIC50 against the CXCR1 receptor (converted). How it is done:
as §1

In assay [3] the target is T1, CXCR2 receptor. As to the kind of experiment: CXCR2 Tango assay. The following applies: Tango reporter gene, 80 nM hCXCL1; read-out: pIC50 against the CXCR2 receptor (converted). More on the design: fused on or other part: TEV protease cleavage site and Gal4-VP16 transcription factor fused to the receptor (Invitrogen Tango construct); no part of the key. The source says: The assay measures ligand-induced activation of the receptor CXCR2 in a stable cell line containing the recombinant human CXCR2 linked to a TEV protease site and a Gal4-VP16 transcription factor (Invitrogen). Ligand binding to the receptor results in the recruitment of arrestin proteins (tagged with protease) to the receptor and triggers the release of a tethered transcription factor. The transcription factor enters the nucleus and activates the transcription of the reporter gene. The ability of a compound to inhibit CXCR2 activation is indirectly assessed by measuring the reporter gene activity.
A vial of cryopreserved cells was removed from liquid nitrogen and rapidly thawed in a water bath at 37° C. with gentle agitation. The cell contents were collected and resuspended in Assay Medium at a density of ˜200,000 cells/ml. All test compounds were dissolved in DMSO at a concentration of 10 mM and then were serially diluted to generate a 10-point dose response curve into 384-well assay plate (Greiner 781090) using an Echo (Labcyte) concentration-response program (50 nl/well). The cell-free, un-stimulated and positive controls were loaded with 50 nl/well pure DMSO to ensure that the DMSO concentration was constant across the plate for all assays. Using Multi-drop Combi (Thermo) with standard cassette, 50 μl of Assay Medium was added to cell-free control wells in compound-containing assay plate; 50 μl of the cell suspension without hCXCL1 (a CXCR2 ligand) was added to un-stimulated control wells (10,000 cells per well); and 50 μl of the cell suspension with 80 nM hCXCL1 was added to the rest of wells of the assay plate (10,000 cells per well). The cells were incubated overnight at 37° C./5% CO2·10 μl of 6× substrate mixture (LiveBLAzer™-FRET B/G substrate (CCF4-AM) Cat #K1096 from Invitrogen, Inc.) was added to each well using Multi-drop Combi (Thermo) with small-tube cassette and the plate was incubated at room temperature for 2 h in the dark. The plate was then read on EnVision using one excitation channel (409 nm) and two emission channels (460 nm and 530 nm).
The blue/green emission ratio (460 nm/530 nm) was calculated for each well by dividing the background-subtracted Blue emission values by the background-subtracted Green emission values. The dose response curve was based on sigmoidal dose-response model. All ratio data was normalized based upon the maximum emission ratio of positive control (hCXCL1) and minimum emission ratio of negative control (DMSO) on each plate.

The target of assay [4] is T1, CXCR2 receptor. As to the kind of experiment: Human whole blood assay version ii) (CD11b, GROα stimulated). Particulars: 33 nM GROα, neutrophil CD11b, read-out: pIC50 against the CXCR2 receptor (converted). Also noted: Assay d) measures the cellular functional activity to the native expressed human CXCR2 in whole blood; endogenous in cells; host or cells: human whole blood (neutrophils). The protocol: Blood was withdrawn by venipuncture from consented adults and poured into a Sterilin tube containing an anti-coagulant Heparin (10 μL/mL of blood). All the test compounds were dissolved in DMSO to 4 mM and serial diluted across the plate, 1 in 3 to provide 10 point dose response curves. The compounds were then diluted 100 fold in -PBS [Phosphate buffered saline (without Calcium Chloride and Magnesium Chloride)] after which, 1 μL was dispensed in 96 U bottom Costar plates using an FX. This was done to reduce the final DMSO concentration to 0.25% and for compounds to be screened at 10 uM final assay concentration, after addition of blood.
10 μL of blood was transferred to the compound plate using a multi-channel pipette, gently tapped and incubated for 15 minutes, at 37° C. After 15 minutes, the stimulant GROα was diluted to 100 nM in 0.1% BSA (Albumin Bovine Serum)-PBS and 5 μL is dispensed across the whole plate for a final concentration of 33 nM. The plate was gently tapped and incubated further for 15 minutes at 37° C. […]
Samples were run on a Becton and Dickinson (BD)-Acurri C6 Flow Cytometer using a HyperCyt sampling apparatus (IntelliCyt) with a flow rate 2 μL/sec. CD11 b upregulation is monitored in neutrophils and identified using a combination of both side scatter and CD16 expression.

With `CC1=CCC[C@H]1NC(=O)Nc1ccc(Cl)c(S(=O)(=O)[C@@]2(C)CCOC2)c1O` [Compound of Formula (J), 1-(4-chloro-2-hydroxy-3-(((S)-3-methyltetrahydrofuran-3-yl)sulfonyl)phenyl)-3-((R)-2-methylcyclopent-2-en-1-yl)urea], in assay [1] (GPCR Arrestin Assay e)), the “selectivity for CXCR2 over CXCR1” value is listed as 730 fold. For the same compound, the IC50 is 5.01 nM in assay [1] (PathHunter CHO cells, agonist at EC80, read-out: pIC50 against the CXCR2 receptor (converted)); 3980 nM in assay [2]; 1 nM in assay [3]; 39.8 nM in assay [4].
